This note sets out measurements from US10730826B2, “Ketone inhibitors of lysine gingipain” (CORTEXYME, INC., priority 2016, dated 2020).

Series [1] has as its system lysine gingipain (Kgp). In words: biochemical. The note with it: as compared to reference compound 73. The format is biochemical, Porphyromonas gingivalis. As to the method:
(§1) The specific assay conditions were as follows. Buffer: pH=7.5, 100 mM Tris-HCl, 75 mM NaCl, 2.5 mM CaCl2), 10 mM cysteine, 1% DMSO after all additions. Protein: 0.1 nM Kgp, isolated from culture of Porphyromonas gingivalis, as described by Pike et al. (J. Biol. Chem. 1994, 269(1), 406), and Potempa and Nguyen (Current Protocols in Protein Science. 2007, 21.20.1-21.20.27). Fluorogenic substrate: 10 μM Z-His-Glu-Lys-MCA. Time=90 minutes. Temperature=37° C.
(§2) Further assays to measure the inhibitory activity of compounds of the present invention against Kgp and cathepsins B, H, K, L, and S were conducted as described in Example 66. The capacities of the compounds to inhibit the activity of cathepsins F, V, and Z were also measured.

Series [2] has as its target lysine gingipain (Kgp) (Porphyromonas gingivalis (Bacteroides gingivalis), UniProt P72194). In words: biochemical. The format is biochemical. The note with it: IC50 (nM) Kgp. As to the method:
as §1, §2

Series [3] deals with Cathepsin B (Homo sapiens (Human), UniProt P07858). Briefly: Cathepsin B inhibition assay. The format is biochemical. The note with it: Table 3; read-out: IC50 (nM) CatB. On the procedure: (§3) The capacities of compounds of the present invention to inhibit the activity of cathepsins B, H, K, L, and S were measured in similar assays. Boc-Leu-Arg-Arg-AMC (20 μM) in sodium acetate buffer (50 mM, pH 5.5) containing DTT (1 mM) and EDTA (2 mM) was used for the Cathepsin B assay. L-Arg-AMC (20 μM) in sodium acetate buffer (50 mM, pH 5.5) containing DTT (1 mM) and EDTA (2 mM) was used for the Cathepsin H assay. Z-Phe-Arg-AMC (10 μM) in HEPES buffer (50 mM, pH 7.4) containing DTT (2.5 mM) and EDTA (1 mM) was used for the Cathepsin K assay. Z-Phe-Arg-AMC (20 μM) in sodium acetate buffer (50 mM, pH 5.5) containing DTT (1 mM) and EDTA (2 mM) was used for the Cathepsin L assay. Z-Leu-Arg-AMC (10 μM) in sodium acetate buffer (25 mM, pH 4.5) containing DTT (2.5 mM) and NaCl (50 mM) was used for the Cathepsin S assay. The capacities of the compounds to inhibit the activity of cathepsins F, V, and Z were also measured.
as §2

For series [4], the target named is Cathepsin S (Homo sapiens (Human), UniProt P25774). In words: Cathepsin S inhibition assay. The note with it: Table 3; read-out: IC50 (nM) CatS. The format is biochemical. On the procedure: as §3, §2
Series [5] addresses Cathepsin K (Homo sapiens (Human), UniProt P43235). Briefly: Cathepsin K inhibition assay. The format is biochemical. The note with it: Table 3; read-out: IC50 (nM) CatK. As to the method:
as §3, §2

In series [6] the target is Cathepsin L (Homo sapiens (Human), UniProt P07711). In words: Cathepsin L inhibition assay. The format is biochemical. The note with it: Table 3; read-out: IC50 (nM) CatL. On the procedure:
as §3, §2

A short description of series [7]: Pharmacokinetics in male CD-1 mice dosed p.o. The format is in vivo. The note with it: p.o. 10 mg/kg, compared to reference compound 73.

Take `NCCCC[C@H](NC(=O)c1ccccn1)C(=O)COc1c(F)ccc(F)c1F` [Compound 50, (S)—N-(7-amino-2-oxo-1-(2,3,6-trifluorophenoxy)heptan-3-yl)picolinamide]: the “selectivity for Kgp over endogenous cathepsins” value in series [1] is recorded as “increased selectivity”.

In series [2] (Table 4), `NCCCCC(NC(=O)c1cccnc1F)C(=O)COc1c(F)cccc1F` (stereo not drawn) [Compound 32a] yielded an IC50 of 0.08 nM.

Take `NCCCCC(NC(=O)c1ccc(F)cc1)C(=O)COc1c(F)cccc1F` (stereo not drawn) [Compound 35a]: the IC50 in series [2] (Table 4) was 0.1 nM.

`NCCCCC(NC(=O)c1cccnc1)C(=O)COc1c(F)cccc1F` (stereo not drawn) [Compound 43a] registered an IC50 in series [2] (Table 4) of 0.09 nM.

`NCCCCC(NC(=O)c1ccccc1)C(=O)C(F)F` (stereo not drawn) [Compound 37a] showed an IC50 in series [2] (Table 4) of more than 100 nM.

`NCCCCC(NC(=O)C1CCCC1)C(=O)COc1ccon1` (stereo not drawn) [Compound 49a]: the half-inhibitory concentration (IC50) in series [2] (Table 4) worked out at 0.23 nM.

`NCCCCC(NC(=O)C1CCCC1)C(=O)COc1cccc(F)c1F` (stereo not drawn) [Compound 5a]: the IC50 in series [2] (Table 3) was 0.15 nM; in series [3], 21500 nM; in series [4], more than 100000 nM; in series [5], more than 100000 nM; in series [6], more than 100000 nM.

Regarding `COC(C)(C)C(=O)N[C@@H](CCCCN)C(=O)COc1c(F)cccc1F` [Compound 48, (S)—N-(7-amino-1-(2,6-difluorophenoxy)-2-oxoheptan-3-yl)-2-methoxy-2-methylpropanamide], in series [7], the oral availability entry is “improved oral availability” and the plasma concentrations entry is on record as “increased plasma concentrations”.

In series [2] (Table 4), `NCCCCC(NC(=O)c1cccc(OCCF)c1)C(=O)COc1c(F)cccc1F` (stereo not drawn) [Compound 27a] returned an IC50 of 0.27 nM.

In turn, `NCCCCC(NC(=O)C1CCCC1)C(=O)Cn1ccc(=O)nc1` (stereo not drawn) [Compound 40a] registered an IC50 in series [2] (Table 4) of 30.3 nM.

`[N-]=[N+]=Nc1cccc(C(=O)NC(CCCCN)C(=O)COc2c(F)cccc2F)c1` (stereo not drawn) [Compound 33a]: in series [2] (Table 4), the IC50 was 0.08 nM.

Compound `CN(C)CC(=O)C(CCCCN)NC(=O)C1CCCC1` (stereo not drawn) [Compound 19a] showed an IC50 in series [2] (Table 3) of more than 100 nM.

Take `CSCC(=O)C(CCCCN)NC(=O)C1CCCC1` (stereo not drawn) [Compound 16a]: the IC50 in series [2] (Table 3) was more than 100 nM.

With `NCCCCC(NC(=O)c1cccc(F)n1)C(=O)COc1c(F)cccc1F` (stereo not drawn) [Compound 28a], the IC50 in series [2] (Table 4) is 0.34 nM.

In turn, `NCCCCC(NC(=O)c1cccnc1)C(=O)COc1c(F)ccc(F)c1F` (stereo not drawn) [Compound 42a] had an IC50 in series [2] (Table 4) of 0.06 nM.

With `NCCCC[C@H](NC(=O)C1CCCC1)C(=O)COc1ccon1` [Compound 49, (S)—N-(7-amino-1-(isoxazol-3-yloxy)-2-oxoheptan-3-yl)cyclopentanecarboxamide], the “concentrations in the brain and cerebrospinal fluid (CSF)” value in series [7] was “reduced concentrations in the brain and/or cerebrospinal fluid”.

For `COC(C)(C)C(=O)NC(CCCCN)C(=O)COc1c(F)cccc1F` (stereo not drawn) [Compound 48a], the IC50 in series [2] (Table 4) amounted to 0.07 nM.

On to `NCCCCC(NC(=O)c1cccnc1Br)C(=O)COc1c(F)cccc1F` (stereo not drawn) [Compound 34a], for which the 50% inhibitory concentration (IC50) in series [2] (Table 4) was 0.13 nM.

In the case of `COC(C)(C)C(=O)NC(CCCCN)C(=O)COc1cccnc1` (stereo not drawn) [Compound 64a], the IC50 in series [2] (Table 4) stood at 0.4 nM.

The compound `NCCCCC(NC(=O)C1CCCC1)C(=O)Cn1cnccc1=O` (stereo not drawn) [Compound 39a] showed an IC50 in series [2] (Table 4) of more than 100 nM.

Regarding `NCCCCC(NC(=O)C1CCCC1)C(=O)COc1cc(F)cc(F)c1` (stereo not drawn) [Compound 8a], the IC50 was 0.34 nM in series [2] (Table 3); 68300 nM in series [3]; more than 100000 nM in series [4]; more than 100000 nM in series [5]; more than 100000 nM in series [6].

As a reminder, the IC50 is the point on the concentration scale where inhibition reaches its midpoint.
